For one test, the system named is HT1080 cells. The test is described as follows: Cellular assay for IDH1m inhibitors: inhibition of 2-HG production (LC-MS, 48 hours) in HT1080 cells. The format is cell-based. Conditions: Homo sapiens, HT-1080; inhibition of 2-HG production, HT1080 cells; read-out: HT1080 IC50. Summed up:
(§1)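 Cells were seeded at 5000/well in DMEM with 10% FBS, incubated overnight, then treated with compound (0.2% DMSO final) for 48 h at 37° C. Medium 2-HG was quantified by LC-MS. IC50 is the concentration reducing 2-HG by 50% versus DMSO control, and CellTiter-Glo viability was read at 72 h.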

For another test, the target named is IDH1 R132H (Homo sapiens, UniProt O75874, R132H). The test can be described thus: Assay for IDH1 R132H inhibitors (NADPH/aKG, resazurin detection). The format is biochemical. The note with it: enzyme assay of Example 12; read-out: IDH1R132H IC50. A digest of the protocol: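 Read-out is resorufin fluorescence (Ex544/Em590) 5 min after adding a 30 μM resazurin detection mix. Before that, mutant enzyme (0.2 μg/ml in its mix) ran 50 min at room temperature with compound, 8 uM NADPH and 2 mM aKG (mix levels) in Tris pH 7.5 with NaCl, MgCl2, BSA.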
IDH1 R132H, sequence (O75874 whole entry R132H): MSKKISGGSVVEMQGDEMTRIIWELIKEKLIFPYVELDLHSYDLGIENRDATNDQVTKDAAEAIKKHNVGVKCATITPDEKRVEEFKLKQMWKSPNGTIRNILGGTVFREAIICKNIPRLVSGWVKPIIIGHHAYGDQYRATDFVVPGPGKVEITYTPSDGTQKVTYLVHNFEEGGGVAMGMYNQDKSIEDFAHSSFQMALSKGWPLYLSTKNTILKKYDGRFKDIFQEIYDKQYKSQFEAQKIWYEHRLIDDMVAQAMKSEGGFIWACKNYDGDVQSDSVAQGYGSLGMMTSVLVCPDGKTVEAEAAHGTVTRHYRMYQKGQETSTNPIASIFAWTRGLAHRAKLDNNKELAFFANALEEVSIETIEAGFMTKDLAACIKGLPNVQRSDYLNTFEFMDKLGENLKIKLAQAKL
(Alamar Blue is a resazurin reagent that responds to reducing activity.)

A further test deals with U87MG cells. The test can be described thus: Cellular assay for IDH1m inhibitors: inhibition of 2-HG production (LC-MS, 48 hours) in U87MG cells. In kind it is cell-based. The note with it: Homo sapiens, U-87 MG, inhibition of 2-HG production, U87R132H cells; read-out: U87R132H IC50. A digest of the protocol: as §1

For orientation: IC50 means the concentration needed to halve the response being measured.

Turning to `COCCC(=O)N1CCN(c2nc(C3CC3)c(OCc3cccc([N+](=O)[O-])c3)cc2C#N)C[C@H]1C` [Compound 312, (R)-6-cyclopropyl-2-(4-(3-methoxypropanoyl)-3-methylpiperazin-1-yl)-5-(3-nitrobenzyloxy)nicotinonitrile], the IC50 with HT1080 cells is 500 to 1000 nM; on IDH1 R132H, < 500 nM; in the test with U87MG cells, 1000 to 10000 nM.

In the case of `CCOC1CC1C(=O)N1CCN(c2nc(C3CC3)c(-c3cccc4cnccc34)cc2C#N)C[C@H]1C1CC1` (stereo partly drawn) [Compound 481], the half-maximal inhibitory concentration (IC50) in the test on HT1080 cells, at IDH1 R132H and in the test with U87MG cells was < 500 nM throughout.

As to `C=Cc1cc(-c2cc(C#N)c(N3CCN(C(=O)CCO)[C@H](C(C)C)C3)nc2C2CC2)c2ccncc2n1` [Compound 681, (R)-6-cyclopropyl-2-(4-(3-hydroxypropanoyl)-3-isopropylpiperazin-1-yl)-5-(2-vinyl-1,7-naphthyridin-4-yl)nicotinonitrile], the IC50 with HT1080 cells, at IDH1 R132H and with U87MG cells was < 500 nM throughout.

As for `C=CC(=O)Nc1cccc(COc2cc(C#N)c(N3CCN(C(=O)CCOC)[C@H](C)C3)nc2C2CC2)c1` [Compound 381, (R)—N-(3-((5-cyano-2-cyclopropyl-6-(4-(3-methoxypropanoyl)-3-methylpiperazin-1-yl)pyridin-3-yloxy)methyl)phenyl)acrylamide], the IC50 in the test on HT1080 cells, at IDH1 R132H and with U87MG cells was < 500 nM in each case.

Take `COCCC(=O)N1CCN(c2nc(C3CC3)c(-c3cccc(N4CC=CC4=O)c3)cc2C#N)C[C@H]1C` [Compound 459, (R)-6-cyclopropyl-2-(4-(3-methoxypropanoyl)-3-methylpiperazin-1-yl)-5-(3-(2-oxo-2,5-dihydro-1H-pyrrol-1-yl)phenyl)nicotinonitrile]: the half-maximal inhibitory concentration (IC50) with HT1080 cells, on IDH1 R132H and in the test with U87MG cells was < 500 nM throughout.

`C=Cc1cc(-c2cc(C#N)c(N3CCN(C(=O)COCC)[C@H](C)C3)nc2C2CC2)ccn1` [Compound 573, (R)-2-cyclopropyl-6-(4-(2-ethoxyacetyl)-3-methylpiperazin-1-yl)-2′-vinyl-3,4′-bipyridine-5-carbonitrile]: the IC50 with HT1080 cells, at IDH1 R132H and with U87MG cells was < 500 nM each time.

`C=Cc1cc2c(-c3cc(C#N)c(N4CCN(C(=O)C5CC5)[C@H](C5CC5)C4)nc3C3CC3)cccc2cn1` [Compound 565, (R)-2-(4-(cyclopropanecarbonyl)-3-cyclopropylpiperazin-1-yl)-6-cyclopropyl-5-(3-vinylisoquinolin-5-yl)nicotinonitrile]: the figures for the IC50 with HT1080 cells, at IDH1 R132H and in the test on U87MG cells were 500 to 1000 nM, < 500 nM and 500 to 1000 nM, respectively.

`C=Cc1cnnc(-c2c(C3CC3)nc(N3CCN(C(=O)/C=C/CCO)[C@H](C4CC4)C3)c(C#N)c2C)c1` [Compound 769, (R,E)-6-cyclopropyl-2-(3-cyclopropyl-4-(5-hydroxypent-2-enoyl)piperazin-1-yl)-4-methyl-5-(5-vinylpyridazin-3-yl)nicotinonitrile]: the concentration for half-maximal inhibition (IC50) in the test with HT1080 cells, at IDH1 R132H and in the test on U87MG cells was < 500 nM each time.

In the case of `C=Cc1ccnc(Nc2cc(C#N)c(N3CCN(C(=O)C[C@H]4CCO4)[C@H](C(C)C)C3)nc2C2CC2)c1` [Compound 764, 6-cyclopropyl-2-((R)-3-isopropyl-4-(2-((R)-oxetan-2-yl)acetyl)piperazin-1-yl)-5-((4-vinylpyridin-2-yl)amino)nicotinonitrile], the IC50 in the test on HT1080 cells, at IDH1 R132H and with U87MG cells was < 500 nM each time.

As to `COCCC(=O)N1CCN(c2nc(C3CC3)c(-c3ccc(OC(F)(F)F)cc3)c(C)c2C#N)C[C@H]1C` [Compound 263, (R)-6-cyclopropyl-2-(4-(3-methoxypropanoyl)-3-methylpiperazin-1-yl)-4-methyl-5-(4-(trifluoromethoxy)phenyl)nicotinonitrile], the IC50 in the test with HT1080 cells is 500 to 1000 nM; at IDH1 R132H, < 500 nM; with U87MG cells, 1000 to 10000 nM.

Regarding `C=Cc1cc(-c2cc(C#N)c(N3CCN(C(=O)C[C@H]4CCO4)[C@H](C4CC4)C3)nc2C2CC2)c2cnn(C)c2n1` [Compound 778, 6-cyclopropyl-2-((R)-3-cyclopropyl-4-(2-((R)-oxetan-2-yl)acetyl)piperazin-1-yl)-5-(1-methyl-6-vinyl-1H-pyrazolo[3,4-b]pyridin-4-yl)nicotinonitrile], the IC50 with HT1080 cells, at IDH1 R132H and in the test with U87MG cells was < 500 nM in each case.

As to `C=Cc1cc(Nc2cc(C#N)c(N3CCN(C(=O)CCO)[C@H](C4CC4)C3)nc2C2CC2)c2ccncc2n1` [Compound 722, (R)-6-cyclopropyl-2-(3-cyclopropyl-4-(3-hydroxypropanoyl)piperazin-1-yl)-5-((2-vinyl-1,7-naphthyridin-4-yl)amino)nicotinonitrile], the IC50 with HT1080 cells, at IDH1 R132H and in the test on U87MG cells was < 500 nM each time.

Regarding `C=Cc1cc(-c2cc(C#N)c(N3CCN(C(=O)CCO)[C@H](C)C3)nc2C2CC2)ccn1` [Compound 500], the IC50 in the test on HT1080 cells, on IDH1 R132H and with U87MG cells was < 500 nM throughout.

In the case of `C=Cc1cnnc(-c2c(C3CC3)nc(N3CCN(C(=O)C[C@H]4CCO4)[C@H](C(C)C)C3)c(C#N)c2C)c1` [Compound 793, 6-cyclopropyl-2-((R)-3-isopropyl-4-(2-((R)-oxetan-2-yl)acetyl)piperazin-1-yl)-4-methyl-5-(5-vinylpyridazin-3-yl)nicotinonitrile], the IC50 with HT1080 cells, at IDH1 R132H and with U87MG cells was < 500 nM in each case.

On to `C=CS(=O)(=O)N(C)c1cccc(-c2cc(C#N)c(N3CCN(C(=O)CCOC)[C@H](C)C3)nc2C2CC2)c1` [Compound 446], for which the IC50 with HT1080 cells was < 500 nM; on IDH1 R132H, < 500 nM; in the test on U87MG cells, 1000 to 10000 nM.

Regarding `C=Cc1cc(-c2cc(C#N)c(N3CCN(C(=O)CCO)[C@H](C4CC4)C3)nc2C2CC2)ncn1` [Compound 663, (R)-6-cyclopropyl-2-(3-cyclopropyl-4-(3-hydroxypropanoyl)piperazin-1-yl)-5-(6-vinylpyrimidin-4-yl)nicotinonitrile], the IC50 with HT1080 cells, at IDH1 R132H and with U87MG cells was < 500 nM each time.

Turning to `C=Cc1cc(-c2cc(C#N)c(N3CCN(C(=O)CCOC)[C@H](C)C3)nc2C2CC2)ccn1` [Compound 390, (R)-2-cyclopropyl-6-(4-(3-methoxypropanoyl)-3-methylpiperazin-1-yl)-2′-vinyl-3,4′-bipyridine-5-carbonitrile], the IC50 in the test on HT1080 cells, at IDH1 R132H and in the test with U87MG cells was < 500 nM in each case.

For `C=Cc1ccnc(Nc2cc(C#N)c(N3CCN(C(=O)CCO)[C@H](C)C3)nc2C2CC2)c1` [Compound 707, (R)-6-cyclopropyl-2-(4-(3-hydroxypropanoyl)-3-methylpiperazin-1-yl)-5-((4-vinylpyridin-2-yl)amino)nicotinonitrile], the IC50 in the test on HT1080 cells, on IDH1 R132H and in the test with U87MG cells was < 500 nM each time.

As for `COCCC(=O)N1CCN(c2nc(C3CC3)c(-c3ccc(NC(C)=O)cc3)cc2C#N)C[C@H]1C` [Compound 412, (R)—N-(4-(5-cyano-2-cyclopropyl-6-(4-(3-methoxypropanoyl)-3-methylpiperazin-1-yl)pyridin-3-yl)phenyl)acetamide], the IC50 with HT1080 cells was 1000 to 10000 nM; at IDH1 R132H, < 500 nM; in the test with U87MG cells, 500 to 1000 nM.

For the compound `COCCC(=O)N1CCN(c2nc(C3CC3)c(OCc3ccc(C(=O)OC)cc3)cc2C#N)C[C@H]1C` [Compound 293, (R)-methyl 4-((5-cyano-2-cyclopropyl-6-(4-(3-methoxypropanoyl)-3-methylpiperazin-1-yl)pyridin-3-yloxy)methyl)benzoate], the IC50 with HT1080 cells was 1000 to 10000 nM; on IDH1 R132H, < 500 nM; in the test with U87MG cells, 1000 to 10000 nM.

For `C=C(F)C(=O)N(C)c1cccc(-c2cc(C#N)c(N3CCN(C(=O)CCOC)[C@H](C)C3)nc2C2CC2)c1` [Compound 453, (R)—N-(3-(5-cyano-2-cyclopropyl-6-(4-(3-methoxypropanoyl)-3-methylpiperazin-1-yl)pyridin-3-yl)phenyl)-2-fluoro-N-methylacrylamide], the IC50 in the test with HT1080 cells is 500 to 1000 nM; on IDH1 R132H, < 500 nM; in the test with U87MG cells it was < 500 nM.

Regarding `CCO[C@@H]1C[C@@H]1C(=O)N1CCN(c2nc(C3CC3)c(-c3cccc4cnccc34)cc2C#N)C[C@H]1C1CC1` [Compound 526, 6-cyclopropyl-2-((R)-3-cyclopropyl-4-((1S,2R)-2-ethoxycyclopropanecarbonyl)piperazin-1-yl)-5-(isoquinolin-5-yl)nicotinonitrile], the half-inhibitory concentration (IC50) is < 500 nM in the test with HT1080 cells, 500 to 1000 nM at IDH1 R132H and < 500 nM in the test with U87MG cells.

Turning to `C=Cc1cc(-c2cc(C#N)c(N3CCN(C(=O)CCO)[C@H](C)C3)nc2C2CC2)c2cccnc2n1` [Compound 625, (R)-6-cyclopropyl-2-(4-(3-hydroxypropanoyl)-3-methylpiperazin-1-yl)-5-(2-vinyl-1,8-naphthyridin-4-yl)nicotinonitrile], the half-maximal inhibitory concentration (IC50) in the test with HT1080 cells, on IDH1 R132H and in the test with U87MG cells was < 500 nM throughout.

The values are drawn from patent publication US9856279B2 (AGIOS PHARMACEUTICALS, INC, priority 2011, dated 2018).
